Experimental data reported in patent EP4603105A1, “PHARMACEUTICAL COMPOSITION CONTAINING CYCLIC COMPOUND HAVING SELECTIVE KRAS INHIBITORY EFFECT AGAINST HRAS AND NRAS” (CHUGAI SEIYAKU KABUSHIKI KAISHA, priority 2022, dated 2024).
*1 amine or outer side, *2 acyl side, *3 side chain or, on linkers, in order; H or OH if unused. Where a SMILES comes first, the peptide text is derived from it. Bridges are numbered along the chain shown (N, C = ends). [ ]: non-standard residue; d: D form. The star is where a group is joined. ξ: configuration not given here. hPhe(3,5-F2-4-CF3) = N[C@@H](CCc1cc(F)c(C(F)(F)F)c(F)c1)C(=O)O; hPhe(3-Cl-4-CF3) = N[C@@H](CCc1ccc(C(F)(F)F)c(Cl)c1)C(=O)O; NPrPhe(4-CF3) = CCCN[C@@H](Cc1ccc(C(F)(F)F)cc1)C(=O)O; NEtAsp = CCN([C@@H](CC(=O)[*:3])C(=O)[*:2])[*:1]; X31 = C=CCN([C@@H](Cc1ccccc1)C(=O)[*:2])[*:1]; NMeAbu(4,4,4-F3) = CN[C@@H](CC(F)(F)F)C(=O)O; Pro(4-spirocPr) = O=C(O)[C@@H]1CC2(CC2)CN1; NMeGly(cPent) = CN[C@H](C(=O)O)C1CCCC1; Pro(4,4-F2) = O=C(O)[C@@H]1CC(F)(F)CN1; NMeNle(5-ene) = C=CCC[C@H](NC)C(=O)O; dIle(3ξ) = CCC(C)[C@@H](N)C(=O)O; NMeD = CN[C@@H](CC(=O)O)C(=O)O; NMeL = CN[C@@H](CC(C)C)C(=O)O; αMeL = CC(C)C[C@](C)(N)C(=O)O; Morpholide = C1CN(*)CCO1; NMeA = CN[C@@H](C)C(=O)O; Ac5c = NC1(C(=O)O)CCCC1; Aze = O=C(O)[C@@H]1CCN1; Ac4c = NC1(C(=O)O)CCC1; NEtG = CCNCC(=O)O; Sar = CNCC(=O)O

Assays:
HRAS wild-type protein = HRAS wild-type protein (Homo sapiens, UniProt P01112); assay: Binding to HRAS by surface plasmon resonance (SPR), KD and KD ratio to KRAS
In short: (§1)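 Compound binding is evaluated by SPR single-cycle kinetics, with concentrations added intermittently from low to high for 75 s each. Target surfaces carry GDP-loaded biotinylated Avi-RAS at about 100–300 RU, regenerated after each cycle; temperature 30°C. A 1:1 binding model gives KD.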

[1] = biological target: GDP-bound NRAS wild-type protein (Homo sapiens, UniProt P01111); assay: Binding to NRAS by surface plasmon resonance (SPR), KD and KD ratio to KRAS
In short: as §1

[2] = system: human lung cancer strain NCI-H441; type: cell-based
In short: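 Proliferation was scored by […] measured after the reagent was added to cultures kept at 37°C in 5% carbon dioxide.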

[3] = ratio of KD for HRAS wild-type protein to KD for KRAS
[4] = ratio of KD for GDP-bound NRAS wild-type protein to KD for KRAS
[5] = ratio of the KD value with respect to HRAS wild-type protein to the KD value with respect to KRAS
[6] = ratio of the KD value with respect to GDP-bound NRAS wild-type protein to the KD value with respect to KRAS
[7] = ratio of KD value for HRAS wild-type protein to KD value for KRAS (SPR)
[8] = ratio of KD value for GDP-bound NRAS wild-type protein to KD value for KRAS (SPR)

Sequence of HRAS wild-type protein (P01112 whole entry): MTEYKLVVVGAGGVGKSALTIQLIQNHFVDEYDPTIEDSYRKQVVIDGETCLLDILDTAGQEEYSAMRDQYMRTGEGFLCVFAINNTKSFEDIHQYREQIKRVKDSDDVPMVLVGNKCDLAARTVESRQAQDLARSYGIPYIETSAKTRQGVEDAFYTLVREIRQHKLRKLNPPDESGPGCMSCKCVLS
Sequence of GDP-bound NRAS wild-type protein (P01111 whole entry): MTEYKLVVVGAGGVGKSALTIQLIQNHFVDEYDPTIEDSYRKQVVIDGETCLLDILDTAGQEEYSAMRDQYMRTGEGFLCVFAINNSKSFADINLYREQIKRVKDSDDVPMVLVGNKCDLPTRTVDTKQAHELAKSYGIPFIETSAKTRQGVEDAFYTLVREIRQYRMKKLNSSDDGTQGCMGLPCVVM

Structure (SMILES)	HRAS /KRAS (HRAS wild-type protein; [3])	NRAS /KRAS [1, 4]	IC50 [2] [nM]	HRAS /KRAS (HRAS wild-type protein; [5])	NRAS /KRAS [1, 6]	HRAS /KRAS (HRAS wild-type protein; [7])	NRAS /KRAS [1, 8]
CCCN1C(=O)CN(C)C(=O)CN(C)C(=O)[C@H]([C@@H](C)CC)NC(=O)[C@H](CC(F)(F)F)N(C)C(=O)C[C@@H](C(=O)N2CCOCC2)N(C)C(=O)[C@H](C2CCCC2)N(C)C(=O)C2(CCCC2)NC(=O)[C@@H]2CC(F)(F)CN2C(=O)[C@H](CCc2ccc(C(F)(F)F)c(Cl)c2)NC(=O)CN(C)C(=O)[C@@H]1Cc1ccc(C(F)(F)F)cc1 [PP0199] ([NMeAbu(4,4,4-F3)]I[Sar][Sar][NPrPhe(4-CF3)][Sar][hPhe(3-Cl-4-CF3)][Pro(4,4-F2)][Ac5c][NMeGly(cPent)][NMeD]-Morpholide; lactam N-11)	C (A compound having a KD ratio of 0.1 or more and less than 3 is denoted as C)	B (a compound having 3 or more and less than 10 is denoted as B)	3.5				
CCO[C@@H]1C[C@H]2C(=O)NC3(CCC3)C(=O)N(C)[C@@H](C3CCCC3)C(=O)N(C)[C@H](C(=O)N(C)CC)CC(=O)N(C)[C@@H](C3CC3)C(=O)N[C@@H]([C@@H](C)CC)C(=O)N(C)CC(=O)N(C)[C@H]3C/C=C\CCN(C3=O)[C@@H](Cc3ccc(C(F)(F)F)cc3)C(=O)N(C)CC(=O)N[C@@H](CCc3ccc(C(F)(F)F)c(OC)c3)C(=O)N2C1 [PP2021]			4.9	B (a compound having 3 or more and less than 10 is denoted as B)	A (a compound having 10 or more and less than 20 is denoted as A)		
CC[C@H](C)[C@@H]1NC(=O)[C@H](CC(F)F)N(C)C(=O)C[C@@H](C(=O)N(C)C)N(C)C(=O)[C@H](C2CCCC2)N(C)C(=O)C2(CC(C)(C)C2)NC(=O)[C@@H]2C[C@H](C)CN2C(=O)[C@H](CCc2cc(F)c(C(F)(F)F)c(F)c2)NC(=O)CN(C)C(=O)[C@H](Cc2ccc(C(F)(F)F)cc2)N2CC/C=C\C[C@@H](C2=O)N(C)C(=O)CN(C)C1=O [PP1658]			3.8			A (a compound having 10 or more and less than 20 is denoted as A)	A (a compound having 10 or more and less than 20 is denoted as A)
CCCN1C(=O)CN(C)C(=O)CN(CC)C(=O)[C@H]([C@@H](C)CC)NC(=O)[C@H](CC(C)C)N(C)C(=O)C[C@@H](C(=O)N2CCOCC2)N(C)C(=O)[C@H](C2CCCC2)N(C)C(=O)C2(CCCC2)NC(=O)[C@@H]2CC3(CC3)CN2C(=O)[C@H](CCc2ccc(C(F)(F)F)c(Cl)c2)NC(=O)CN(C)C(=O)[C@@H]1Cc1ccc(C(F)(F)F)cc1 [PP0295] ([NMeL]I[NEtG][Sar][NPrPhe(4-CF3)][Sar][hPhe(3-Cl-4-CF3)][Pro(4-spirocPr)][Ac5c][NMeGly(cPent)][NMeD]-Morpholide; lactam N-11)	C (A compound having a KD ratio of 0.1 or more and less than 3 is denoted as C)	B (a compound having 3 or more and less than 10 is denoted as B)	33.2				
CC[C@H](C)[C@@H]1NC(=O)[C@H](CC2CC2)N(C)C(=O)C[C@@H](C(=O)N(C)C)N(C)C(=O)[C@H](C2CCCC2)N(C)C(=O)C2(CCCC2)NC(=O)[C@@H]2C[C@H](C)CN2C(=O)[C@H](CCc2cc(F)c(C(F)(F)F)c(F)c2)NC(=O)CN(C)C(=O)[C@H](Cc2ccc(C(F)(F)F)cc2)N2CC/C=C\C[C@@H](C2=O)N(C)C(=O)CN(C)C1=O [PP1511]			13.7			A (a compound having 10 or more and less than 20 is denoted as A)	AA (a compound having 20 or more is denoted as AA)
C=CCC[C@H]1C(=O)N(CC=C)[C@@H](Cc2ccccc2)C(=O)N(C)CC(=O)N[C@@H](CCc2ccc(C(F)(F)F)c(Cl)c2)C(=O)N2CCC[C@H]2C(=O)NC2(CCCC2)C(=O)N(C)[C@@H](C2CCCC2)C(=O)N(C)[C@H](C(=O)N2CCOCC2)CC(=O)N(C)[C@@H](CC(C)C)C(=O)N[C@H](C(C)CC)C(=O)N(C)CC(=O)N1C (stereo partly drawn) [PP0599] ([NMeL][dIle(3ξ)][Sar][NMeNle(5-ene)][X31][Sar][hPhe(3-Cl-4-CF3)]P[Ac5c][NMeGly(cPent)][NMeD]-Morpholide; lactam N-11)			2800	B (a compound having 3 or more and less than 10 is denoted as B)	C (A compound having a KD ratio of 0.1 or more and less than 3 is denoted as C)		
CCO[C@@H]1C[C@H]2C(=O)NC3(CCC3)C(=O)N(C)[C@@H](C3CCCC3)C(=O)N(C)[C@H](C(=O)N(C)CC)CC(=O)N(C)[C@H]3CCCCCc4ccc(cc4)C[C@@H](C(=O)N(C)CC(=O)N[C@@H](CCc4ccc(C(F)(F)F)c(OC)c4)C(=O)N2C1)N1CC/C=C\C[C@@H](C1=O)N(C)C(=O)CN(C)C(=O)[C@H]([C@@H](C)CC)NC3=O [PP2118]			8.1	B (a compound having 3 or more and less than 10 is denoted as B)	A (a compound having 10 or more and less than 20 is denoted as A)		
CCO[C@@H]1C[C@H]2C(=O)NC3(CCC3)C(=O)N(C)[C@@H](C3CCCC3)C(=O)N(C)[C@H](C(=O)N3CCCC3)CC(=O)N(C)[C@H]3CCCCC/C=C/c4ccc(cc4)C[C@@H](C(=O)N(C)CC(=O)N[C@@H](CCc4ccc(Cl)c(Cl)c4)C(=O)N2C1)N1CC/C=C\C[C@@H](C1=O)N(C)C(=O)CN(C)C(=O)[C@H]([C@@H](C)CC)NC3=O [PP3049]	A (a compound having 10 or more and less than 20 is denoted as A)	AA (a compound having 20 or more is denoted as AA)	12.6				
CCCN1C(=O)[C@@H]2CCN2C(=O)[C@H](C)N(C)C(=O)[C@H]([C@@H](C)CC)NC(=O)[C@H](CC(C)C)N(C)C(=O)C[C@@H](C(=O)N(C)C)N(CC)C(=O)[C@H](C2CCCC2)N(C)C(=O)C2(CCC2)NC(=O)[C@@H]2CCCN2C(=O)[C@H](CCc2ccc(C(F)(F)F)c(Cl)c2)NC(=O)CN(C)C(=O)[C@@H]1Cc1ccc(C(F)(F)F)cc1 [PP1957] ([NMeL]I[NMeA][Aze][NPrPhe(4-CF3)][Sar][hPhe(3-Cl-4-CF3)]P[Ac4c][NMeGly(cPent)][NEtAsp]-NMe2; lactam N-11)			8.6	B (a compound having 3 or more and less than 10 is denoted as B)	C (A compound having a KD ratio of 0.1 or more and less than 3 is denoted as C)		
CCCC[C@H]1C(=O)N[C@@H]([C@@H](C)CC)C(=O)N(C)CC(=O)N(C)[C@H]2C/C=C\CCN(C2=O)[C@@H](Cc2ccc(C)cc2)C(=O)N(C)CC(=O)N[C@@H](CCc2cc(F)c(C(F)(F)F)c(F)c2)C(=O)N2C[C@H](OCC)C[C@H]2C(=O)NC2(CCC2)C(=O)N(C)[C@@H](C2CCCC2)C(=O)N(C)[C@H](C(=O)N(C)C)CC(=O)N1C [PP2798]	A (a compound having 10 or more and less than 20 is denoted as A)	A (a compound having 10 or more and less than 20 is denoted as A)	8.5				
CC[C@H](C)[C@@H]1NC(=O)[C@H](CC2CC2)N(C)C(=O)C[C@@H](C(=O)N2CCCC2)N(C)C(=O)[C@H](C2CCCC2)N(C)C(=O)C2(CCC2)NC(=O)[C@@H]2CC(F)(F)CN2C(=O)[C@H](CCc2cc(F)c(C(F)(F)F)c(F)c2)NC(=O)CN(C)C(=O)[C@H](Cc2ccc(C(F)(F)F)cc2)N2CC/C=C\C[C@@H](C2=O)N(C)C(=O)CN(C)C1=O [PP1512]			16.9			A (a compound having 10 or more and less than 20 is denoted as A)	AA (a compound having 20 or more is denoted as AA)
CCO[C@@H]1C[C@H]2C(=O)NC3(CCC3)C(=O)N(C)[C@@H](CC(C)(C)C)C(=O)N(C)[C@H](C(=O)N3CCCC3)CC(=O)N(C)[C@@H](CC)C(=O)N[C@@H]([C@@H](C)CC)C(=O)N(C)CC(=O)N(C)[C@H]3C/C=C\CCN(C3=O)[C@@H](CC3CCCCC3)C(=O)N(C)CC(=O)N[C@@H](CCc3cc(F)c(C(F)(F)F)c(F)c3)C(=O)N2C1 [PP2772]	B (a compound having 3 or more and less than 10 is denoted as B)	B (a compound having 3 or more and less than 10 is denoted as B)	28.1				
C#CC[C@H]1C(=O)N[C@@H]([C@@H](C)CC)C(=O)N(C)CC(=O)N(C)[C@H]2C/C=C\CCN(C2=O)[C@@H](Cc2ccc(C(F)(F)F)cc2)C(=O)N(C)CC(=O)N[C@@H](CCc2ccc(C(F)(F)F)c(OC)c2)C(=O)N2C[C@H](OCC)C[C@H]2C(=O)NC2(CCC2)C(=O)N(C)[C@@H](C2CCCC2)C(=O)N(C)[C@H](C(=O)N(C)CCC)CC(=O)N1C [PP2059]			4.9	A (a compound having 10 or more and less than 20 is denoted as A)	A (a compound having 10 or more and less than 20 is denoted as A)		
CCCN1C(=O)[C@@H]2CCN2C(=O)CN(C)C(=O)[C@H]([C@@H](C)CC)NC(=O)[C@H](CC(C)C)N(C)C(=O)C[C@@H](C(=O)N2CCOCC2)N(C)C(=O)[C@H](C2CCCC2)N(C)C(=O)[C@](C)(CC(C)C)NC(=O)[C@@H]2CCCN2C(=O)[C@H](CCc2cc(F)c(C(F)(F)F)c(F)c2)NC(=O)CN(C)C(=O)[C@@H]1Cc1ccc(C(F)(F)F)cc1 [PP0795] ([NMeL]I[Sar][Aze][NPrPhe(4-CF3)][Sar][hPhe(3,5-F2-4-CF3)]P[αMeL][NMeGly(cPent)][NMeD]-Morpholide; lactam N-11)	B (a compound having 3 or more and less than 10 is denoted as B)	C (A compound having a KD ratio of 0.1 or more and less than 3 is denoted as C)	356				
